Data taken from the NIST ThermoML archive (doi:10.1016/j.jct.2014.03.023).

Key:
[1] = wn = mass fraction of the nth substance listed; settings: Pendant drop shape
[2] = molar heat capacity at constant pressure; wn = mass fraction of the nth substance listed; settings: 101 kPa, Liquid, Small sample (50 mg) DSC

CC[n+]1ccc(C)cc1.O=S(=O)([N-]S(=O)(=O)C(F)(F)F)C(F)(F)F + CCn1cc[n+](C)c1.N#CN=C=[N-]
Settings | molar heat capacity at constant pressure, w2 = 0 [J/K/mol] | molar heat capacity at constant pressure, w2 = 0.25 [J/K/mol] | molar heat capacity at constant pressure, w2 = 0.5 [J/K/mol] | molar heat capacity at constant pressure, w2 = 0.75 [J/K/mol] | surface tension liquid-gas, w2 = 0 [mN/m] | surface tension liquid-gas, w2 = 0.25 [mN/m] | surface tension liquid-gas, w2 = 0.5 [mN/m] | surface tension liquid-gas, w2 = 0.75 [mN/m]
[1], 298.2 K | – | – | – | – | 24.3 | 40.8 | 45.8 | 52
[1], 303.2 K | – | – | – | – | 23.9 | 40.3 | 45.3 | 51.5
[1], 313.2 K | – | – | – | – | 23.1 | 39.2 | 44.1 | 50.3
[1], 323.2 K | – | – | – | – | 22.2 | 38 | 42.8 | 49
[2], 296.2 K | 627 | 504 | 421 | 363 | – | – | – | –
[2], 300.2 K | 634 | 509 | 425 | 366 | – | – | – | –
[2], 304.2 K | 637 | 512 | 427 | 369 | – | – | – | –
[2], 308.2 K | 640 | 514 | 430 | 371 | – | – | – | –
[2], 312.2 K | 644 | 517 | 433 | 374 | – | – | – | –
[2], 316.2 K | 647 | 520 | 436 | 376 | – | – | – | –
[2], 320.2 K | 649 | 522 | 438 | 378 | – | – | – | –
[2], 324.2 K | 652 | 524 | 441 | 381 | – | – | – | –
[2], 328.2 K | 655 | 528 | 444 | 383 | – | – | – | –
[2], 332.2 K | 659 | 532 | 448 | 387 | – | – | – | –
[2], 336.2 K | 665 | 537 | 451 | 390 | – | – | – | –
[2], 340.2 K | 669 | 541 | 455 | 393 | – | – | – | –
[2], 344.2 K | 674 | 546 | 459 | 397 | – | – | – | –
[2], 348.2 K | 679 | 550 | 463 | 400 | – | – | – | –
[2], 352.2 K | 685 | 555 | 467 | 404 | – | – | – | –
[2], 356.2 K | 691 | 560 | 472 | 407 | – | – | – | –
[2], 360.2 K | 697 | 565 | 477 | 411 | – | – | – | –
[2], 364.2 K | 703 | 570 | 481 | 415 | – | – | – | –
[2], 368.2 K | 708 | 576 | 486 | 419 | – | – | – | –
[2], 372.2 K | 715 | 584 | 492 | 424 | – | – | – | –
